This assay deals with T1, Gag-Pol polyprotein [600-1029,C879S]/[600-1159,C879S] (Human immunodeficiency virus 1, UniProt P03366, C879S).
T1 construct: 600-1029; 600-1159
Put plainly: HIV-1 RT Assay.

Consider nine compounds from BindingDB's records for doi:10.1021/jm0613121 (Bar-Ilan University, 2007).

For orientation: IC50 means the concentration that gives 50% inhibition. A higher IC50 goes with weaker potency.

Take `NC(=O)CC(=O)c1cccc(C(=O)c2ccccc2)c1` [3-(3-Benzoylphenyl)-3-oxopropanamide]: the IC50 (pH 7.5, 37 °C) is > 312 µM.

On to `N#CCC(=O)c1ccc(Cl)c(Br)c1` [3-(3-Bromo-4-chlorophenyl)-3-oxopropanenitrile], for which the IC50 (pH 7.5, 37 °C) was > 312 µM.

Regarding `NC(=O)CC(=O)c1cccc(Cl)c1` [3-(3-Chlorophenyl)-3-oxopropanamide], for the setting “pH 7.5, 37 °C”, the IC50 is > 312 µM.

Consider `N#CCC(=O)c1cccc(I)c1` [3-(3-Iodophenyl)-3-oxopropanenitrile], for which the concentration for half-maximal inhibition (IC50) (pH 7.5, 37 °C) was > 312 µM.

Regarding `NC(=O)CC(=O)c1cccc(-c2ccccc2)c1` [3-Oxo-3-(3-phenylphenyl)propanamide], the IC50 (pH 7.5, 37 °C) was > 312 µM.

As for `NC(=O)c1[nH]cnc1-c1cccc(C(=O)c2ccccc2)c1` [4-(3-Benzoylphenyl)-1H-imidazole-5-carboxamide], under “pH 7.5, 37 °C”, the half-inhibitory concentration (IC50) was > 312 µM.

With `NC(=O)c1scnc1-c1cccc(I)c1` [4-(3-Iodophenyl)thiazole-5-carboxamide], the IC50 is > 312 µM.

Take `NC(=O)c1[nH]cnc1-c1cccc(-c2ccccc2)c1` [4-(3-Phenylphenyl)-1H-imidazole-5-carboxamide]: the IC50 is > 312 µM.

Regarding `NC(=O)c1scnc1-c1cccc(-c2ccccc2)c1` [4-(3-phenylphenyl)-1,3-thiazole-5-carboxamide], the IC50 was > 312 µM.
